The record followed here is US7494980B2, “Antimicrobial peptide and methods of use thereof” (The United States of America as represented by the …, priority 2003, dated 2009).

Ends that are not written are not given here.

Common to all, as to experiment: In vitro susceptibility (broth microdilution MIC, MBC by spiral-plating)
The subject of one experiment is S salivarius ATCC 9222. It counts as cell-based, Streptococcus salivarius. The conditions noted are these: 24-48 h. From the text: (§1) Strains used in Examples 3-6 included ATCC and laboratory strains of different oral bacteria. These included: Actinomyces naeslundii strain T14V-J1, Actinomyces israelii ATCC 10049, Streptococcus mutans strains LT 11 and ATCC 25175, Streptococcus sobrinus ATCC 33478, Streptococcus gordonii strains DL1 and ATCC 51656, Streptococcus sanguis strains SK36 and ATCC 10556, Streptococcus salivarius ATCC 9222, Streptococcus oralis strains 34 and ATCC 35037, Lactobacillus salivarius ATCC 29602, Lactobacillus acidophilus ATCC 4357, and Actinobacillus actinomycetemcomitans ATCC 43718. S. mutans strain LT 11 was kindly provided by Lin Tao, University of Illinois at Chicago, Ill. S. gordonii DLI, S. sanguis SK36, and S. oralis 34 were provided by John Cisar, National Institute of Dental and Craniofacial Research, NIH, Bethesda, Md. […]
(§2) MICs were determined as described by Fuchs et al. (1998) with a slight modification. […] The MIC was defined as the lowest concentration of the peptide that prevented visible turbidity, as measured at 600 nm by using an ELISA reader (Titertek Multiskan MCC/340). […] Minimum bactericidal concentrations (MBCs) were determined by spiral-plating (Spiral Plater Autoplate 4000; Spiral Biotech) 50 μl from each clear well (≧MIC) onto BAP.

Another experiment has as its system S. sanguis SK36. It counts as cell-based, Streptococcus sanguis. The conditions noted are these: 24-48 h. From the text:
(§3) Strains used in Examples 3-6 included ATCC and laboratory strains of different oral bacteria. These included: Actinomyces naeslundii strain T14V-J1, Actinomyces israelii ATCC 10049, Streptococcus mutans strains LT 11 and ATCC 25175, Streptococcus sobrinus ATCC 33478, Streptococcus gordonii strains DL1 and ATCC 51656, Streptococcus sanguis strains SK36 and ATCC 10556, Streptococcus salivarius ATCC 9222, Streptococcus oralis strains 34 and ATCC 35037, Lactobacillus salivarius ATCC 29602, Lactobacillus acidophilus ATCC 4357, and Actinobacillus actinomycetemcomitans ATCC 43718. S. mutans strain LT 11 was kindly provided by Lin Tao, University of Illinois at Chicago, Ill. S. gordonii DLI, S. sanguis SK36, and S. oralis 34 were provided by John Cisar, National Institute of Dental and Craniofacial Research, NIH, Bethesda, Md.
(§4) Todd-Hewitt broth (THB), brain heart infusion (BHI) broth, Todd-Hewitt agar (THA), trypticase soy agar (TSA), lactobacilli MRS (MRS) broth, Actinomyces broth and Mueller-Hinton broth (MHB) were purchased from Becton Dickinson. Blood agar plates (BAP) were prepared by supplementing TSA with 5% sheep blood (PML Microbiologicals). All cultures, except for Actinobacillus actinomycetemcomitans, S. mitis and Actinomyces israelii, were grown at 37° C. in room air. Actinobacillus actinomycetemcomitans cultures were grown on BAP or in MHB supplemented with 15 μg haemin ml^−1 (Sigma), 15 μg β-nicotinamide adenine dinucleotide (NAD) ml^−1 (Sigma) and 5% yeast extract (Becton Dickinson) at 37° C. in 5% CO2. S. mitis was grown on BAP or in BHI broth at 37° C. in 5% CO2. Actinomyces israeilli was grown anaerobically in an anaerobic chamber (Coy Laboratory Products) in a 5% CO2/10% H2/85% N2 atmosphere.
(§5) MICs were determined as described by Fuchs et al. (1998) with a slight modification. Procedures were based on the National Committee for Clinical Laboratory Standards broth microdilution method. MHB was used as the main assay medium for most of the tested organisms. Freshly grown cultures at exponential phase were used as the inoculum. Bacteria were centrifuged at 4000 r.p.m. for 15 min at 4° C., suspended in 2× concentrated medium and adjusted to 4×106 c.f.u ml−1 in 2× concentrated medium. Aqueous peptide solution (100 μl) was added to each well of a 96-well, flat-bottomed plate (Becton Dickinson). […] The MIC was defined as the lowest concentration of the peptide that prevented visible turbidity, as measured at 600 nm by using an ELISA reader (Titertek Multiskan MCC/340). […] Minimum bactericidal concentrations (MBCs) were determined by spiral-plating (Spiral Plater Autoplate 4000; Spiral Biotech) 50 μl from each clear well (≧MIC) onto BAP.

A further experiment deals with S. sanguis ATCC 10556. The format is cell-based, Streptococcus sanguis. The settings on record: 24-48 h.
Source text: as §3, §4, §5

The test system of a further experiment is L. acidophilus ATCC 4357. It counts as cell-based, Lactobacillus acidophilus.
Source text: as §3
as §4, with “Actinomyces israeilli was grown anaerobically in an anaerobic chamber (Coy Laboratory Products) in a 5% CO2/10% H2/85% N2 atmosphere.” left out
as §2

Another experiment concerns S. gordonii ATCC 51656. The format is cell-based, Streptococcus gordonii. The conditions noted are these: 24-48 h.
Source text: as §3, §4, §5

In another experiment the test system is S. gordonii DL1. It counts as cell-based, Streptococcus gordonii. The conditions noted are these: 24-48 h.
Source text: as §3, §4, §5

A further experiment relates to S. sobrinus ATCC 33478. It counts as cell-based, Streptococcus sobrinus.
Source text: as §3
as §4, with “Actinomyces israeilli was grown anaerobically in an anaerobic chamber (Coy Laboratory Products) in a 5% CO2/10% H2/85% N2 atmosphere.” left out
as §2

In another experiment the test system is S. mutans ATCC 25175. It counts as cell-based, Streptococcus mutans.
Source text: as §3
as §4, with “Actinomyces israeilli was grown anaerobically in an anaerobic chamber (Coy Laboratory Products) in a 5% CO2/10% H2/85% N2 atmosphere.” left out
as §2

For a further experiment, the system named is L. salivarius ATCC 29602. It counts as cell-based, Lactobacillus salivarius. The conditions noted are these: 24-48 h.
Source text: as §1, §2

[1] abbreviates: MHB, 4 × 10^6 cells ml^−1, 37° C.
[2] abbreviates: clear MIC wells plated on BAP, 24-48 h.
Where [3] appears, read: MHB, 4 × 10^6 cells ml^−1, 37° C., 24-48 h.

Broadly, the MIC is the lowest concentration that inhibits growth of the organism. A high value points to weaker potency. Broadly, the MBC is the lowest tested concentration that kills the bacteria rather than only halting them. A high value points to weaker bactericidal potency.

Turning to “KKVVFKVKFK-NH2 [KSL, lys-lys-val-val-phe-lys-val-lys-phe-lys]”, the MIC in the experiment with S salivarius ATCC 9222 (setting [1]) was determined as 50 µg/mL; with S. sanguis SK36 (setting [1]), 25 µg/mL; with S. sanguis ATCC 10556 (setting [1]) it was 25 µg/mL; against L. acidophilus ATCC 4357 (10% MRS, 4 × 10^6 cells ml^−1, 37° C., 24-48 h), 3.13 µg/mL; with S. gordonii ATCC 51656 (setting [1]), 50 µg/mL; in the experiment with S. gordonii DL1 (setting [1]), 50 µg/mL. The MIC against S. sobrinus ATCC 33478 (setting [3]) amounted to 25 µg/mL; with S. mutans ATCC 25175 (setting [3]), 6.25 µg/mL; in the experiment with L. salivarius ATCC 29602 (10% MRS, 4 × 10^6 cells ml^−1, 37° C.) it was 3.13 µg/mL. The MBC against S salivarius ATCC 9222 (clear MIC wells plated on BAP) stood at 100 µg/mL; with S. sanguis SK36 (clear MIC wells plated on BAP) it was 50 µg/mL; with S. sanguis ATCC 10556 (clear MIC wells plated on BAP), 100 µg/mL; against L. acidophilus ATCC 4357 (setting [2]) it was 12.5 µg/mL; with S. gordonii ATCC 51656 (clear MIC wells plated on BAP) it was 100 µg/mL; in the experiment on S. gordonii DL1 (clear MIC wells plated on BAP), 100 µg/mL. For the same substance, the MBC stood at 50 µg/mL in the experiment on S. sobrinus ATCC 33478 (setting [2]), 12.5 µg/mL in the experiment on S. mutans ATCC 25175 (setting [2]) and 12.5 µg/mL with L. salivarius ATCC 29602 (clear MIC wells plated on BAP). The “concentration inhibiting growth effectively” value with L. acidophilus ATCC 4357, with S. sobrinus ATCC 33478 and with S. mutans ATCC 25175 was less than 25 µg/mL throughout.
